Source: patent publication EP0590919A1, “Therapeutic agents for parkinson's disease” (KYOWA HAKKO KOGYO CO., LTD., priority 1992, dated 1994)

Columns and labels:
dd-strain male mice = assay: Acute toxicity test (minimum lethal dose, oral); assay type: in vivo; conditions: oral administration, three mice per group, mortality seven days after administration
Protocol: Test compounds were orally administered to groups of dd-strain male mice weighing 20 ± 1 g, each group consisting of three mice. Seven days after the administration, minimum lethal dose (MLD) of each compound was determined by observing the mortality.

[1] = system: Haloperidol-Induced Catalepsy; assay: Effect on haloperidol-induced catalepsy; assay type: in vivo, mice; conditions: for ED50: Mus musculus, 1 h, ten mice at each dose, effective = catalepsy score 3 or less, Probit analysis, oral, read-out: ED₅₀; for Number of the Animals Showing Remission: of five mice, catalepsy score not more than 4 points; for Number of the Animals Showing Remission / Remission Rate (%) / Total Score: 10 mg/kg orally; for Remission Rate (%): rate of decrease in total score based on control group; for Total Score: total catalepsy score of five mice (25 points at the full), haloperidol 1.0 mg/kg i.p.
Protocol: Haloperidol (Janssen Pharmaceutica) suspended in 0.3% CMC was intraperitoneally administered to each mouse at a dose of 1.0 mg/kg. Test compounds were suspended in 0.3% CMC or in injectable distilled water (Otsuka Pharmaceutical Co., Ltd.) containing Tween 80. L-DOPA (Kyowa Hakko Kogyo Co., Ltd.) and benserazide hydrochloride (Kyowa Hakko Kogyo Co., Ltd.) were suspended in 0.3% CMC. One hour after the haloperidol administration, the test compound suspensions and the control suspension [injectable distilled water (Otsuka Pharmaceutical Co., Ltd.) containing Tween 80] containing no test compound were orally administered to separate groups of the mice (0.1 ml per 10 g of body weight). One hour after the administration of the test compound, the forelimbs of each mouse and subsequently the hindlimbs of the same mouse were placed on a 4.5 cm-high, 1.0 cm-wide bar and catalepsy was estimated. […] The catalepsy score and the standard of judgment are shown below. […] The number of the animals showing remission against catalepsy is the number of the mice for which the catalepsy score was not more than 4 points. […] The ED₅₀ values were calculated by Probit analysis.

A₂ receptor = target: T1, A₂ receptor (Rattus norvegicus, UniProt P30543); assay: Adenosine A₂ receptor binding test (³H-NECA binding); conditions: ³H-NECA binding, rat corpus striatum, read-out: Inhibition (%) A₂ Receptor; for inhibition at 100 µM: 10⁻⁴M; for inhibition at 10 µM: 10⁻⁵M; for inhibition at 1 µM: 10⁻⁶M; for inhibition at 0.1 µM: 10⁻⁷M
T1 construct: from tissue; host or cells: rat corpus striatum membrane preparation
Protocol: The similar procedure as in the above-described adenosine A₁ receptor binding test was repeated using rat corpus striatum to obtain the final precipitate of the tissue thereof. The precipitate was suspended in 50 mM Tris HCl buffer containing 10 mM magnesium chloride and 0.02 unit/mg tissue of adenosine deaminase (manufactured by Sigma Co.) to give a tissue concentration of 5 mg (wet weight)/ml.
The mixture solution was allowed to stand at 25°C for 120 minutes and then treated in the same manner as in the adenosine A₁ receptor binding test to determine the radioactivity bound to the A₂ receptors.
The inhibition rate of the test compound against the binding of A₂ receptor (³H-NECA binding) was calculated by the following equation: [formula] [Notes] • 1.

T1 sequence (P30543 whole entry): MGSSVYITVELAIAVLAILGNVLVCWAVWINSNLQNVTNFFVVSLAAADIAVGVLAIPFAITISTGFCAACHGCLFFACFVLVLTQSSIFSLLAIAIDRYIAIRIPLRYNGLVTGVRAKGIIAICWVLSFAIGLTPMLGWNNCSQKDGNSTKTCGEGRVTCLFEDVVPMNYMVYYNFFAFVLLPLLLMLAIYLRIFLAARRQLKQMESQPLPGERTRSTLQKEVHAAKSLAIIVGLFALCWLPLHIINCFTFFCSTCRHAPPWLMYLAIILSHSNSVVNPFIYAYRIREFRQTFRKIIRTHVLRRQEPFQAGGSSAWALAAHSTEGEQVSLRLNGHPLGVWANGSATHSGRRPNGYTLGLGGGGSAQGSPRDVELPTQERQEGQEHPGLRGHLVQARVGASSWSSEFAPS

CCn1c(=O)c2c(nc(/C=C/c3ccc(OC)cc3OC)n2C)n(CC)c1=O [Compound 6, (E)-8-(2,4-Dimethoxystyryl)-1,3-diethyl-7-methylxanthine] was tested, and the MLD (dd-strain male mice) was > 300 mg/kg, the ED50 [1] was 1.7 mg/kg and the “Number of the Animals Showing Remission” value [1] was 5. For the same compound, the “Remission Rate (%)” value [1] was 76% and the “Total Score” value [1] was 6.
With CCn1c(=O)c2c(nc(/C=C/c3cc(C)c(OC)cc3C)n2C)n(CC)c1=O [Compound 12, (E)-1,3-Diethyl-8-(4-methoxy-2,5-dimethylstyryl)-7-methylxanthine] the MLD (dd-strain male mice) was > 300 mg/kg, the ED50 [1] was 2.7 mg/kg and the “Number of the Animals Showing Remission” value [1] was 5. The “Remission Rate (%)” value [1] was 52% and the “Total Score” value [1] was 12.
For COc1ccc(/C=C/c2nc3c([nH]2)c(=O)n(C)c(=O)n3C)c(OC)c1C [Compound 31, (E)-8-(2,4-Dimethoxy-3-methylstyryl)theophylline], the MLD (dd-strain male mice) was > 100 mg/kg, the inhibition at 100 µM (A₂ receptor) was 79% and the inhibition at 10 µM (A₂ receptor) was 89%. For the same compound, the inhibition at 1 µM (A₂ receptor) was 82%, the inhibition at 0.1 µM (A₂ receptor) was 74% and the “Number of the Animals Showing Remission” value [1] was 4. For the same compound, the “Remission Rate (%)” value [1] was 36% and the “Total Score” value [1] was 16.
In the case of COc1ccc(/C=C/c2nc3c(c(=O)n(C)c(=O)n3C)n2C)c(OC)c1C [Compound 32, (E)-8-(2,4-Dimethoxy-3-methylstyryl)caffeine], the MLD (dd-strain male mice) is reported as > 100 mg/kg, the inhibition at 100 µM (A₂ receptor) is reported as 98% and the inhibition at 10 µM (A₂ receptor) is reported as 82%. For the same compound, the inhibition at 1 µM (A₂ receptor) was 84%, the inhibition at 0.1 µM (A₂ receptor) was 83% and the “Number of the Animals Showing Remission” value [1] was 4. For the same compound, the “Remission Rate (%)” value [1] was 32% and the “Total Score” value [1] was 17.
CCn1c(=O)c2c(nc(/C=C/c3cc(C)ccc3C)n2C)n(CC)c1=O [Compound 34, (E)-8-(2,5-Dimethylstyryl)-1,3-diethyl-7-methylxanthine] was tested, and the MLD (dd-strain male mice) was > 300 mg/kg, the inhibition at 100 µM (A₂ receptor) was 94% and the inhibition at 10 µM (A₂ receptor) was 90%. For the same compound, the inhibition at 1 µM (A₂ receptor) was 93%, the inhibition at 0.1 µM (A₂ receptor) was 86% and the ED50 [1] was 2.6 mg/kg. The “Number of the Animals Showing Remission” value [1] was 5, the “Remission Rate (%)” value [1] was 68% and the “Total Score” value [1] was 8.
With CCOc1ccc(/C=C/c2nc3c([nH]2)c(=O)n(CC)c(=O)n3CC)cc1 [Compound 35, (E)-8-(4-Ethoxystyryl)-1,3-diethylxanthine] the MLD (dd-strain male mice) was > 100 mg/kg, the inhibition at 1 µM (A₂ receptor) was 71% and the inhibition at 0.1 µM (A₂ receptor) was 54%.
In the case of CCOc1ccc(/C=C/c2nc3c(c(=O)n(CC)c(=O)n3CC)n2C)cc1 [Compound 36, (E)-8-(4-Ethoxystyryl)-1,3-diethyl-7-methylxanthine], the MLD (dd-strain male mice) is reported as > 300 mg/kg, the inhibition at 1 µM (A₂ receptor) is reported as 101% and the inhibition at 0.1 µM (A₂ receptor) is reported as 71%. The ED50 [1] was 1.5 mg/kg, the “Number of the Animals Showing Remission” value [1] was 5 and the “Remission Rate (%)” value [1] was 76%. For the same compound, the “Total Score” value [1] was 6.
With CCCOc1ccc(/C=C/c2nc3c([nH]2)c(=O)n(CC)c(=O)n3CC)cc1 [Compound 37, (E)-1,3-Diethyl-8-(4-propoxystyryl)xanthine] the MLD (dd-strain male mice) was > 100 mg/kg, the inhibition at 1 µM (A₂ receptor) was 60% and the inhibition at 0.1 µM (A₂ receptor) was 56%.
CCCOc1ccc(/C=C/c2nc3c(c(=O)n(CC)c(=O)n3CC)n2C)cc1 [Compound 38, (E)-1,3-Diethyl-7-methyl-8-(4-propoxystyryl)xanthine] was tested, and the MLD (dd-strain male mice) was > 300 mg/kg, the inhibition at 1 µM (A₂ receptor) was 94% and the inhibition at 0.1 µM (A₂ receptor) was 71%. For the same compound, the ED50 [1] was 2.5 mg/kg, the “Number of the Animals Showing Remission” value [1] was 4 and the “Remission Rate (%)” value [1] was 68%. For the same compound, the “Total Score” value [1] was 8.
For CCn1c(=O)c2[nH]c(/C=C/c3ccc(OC)c(OC)c3Cl)nc2n(CC)c1=O [Compound 49, (E)-8-(2-Chloro-3,4-dimethoxystyryl)-1,3-diethylxanthine], the MLD (dd-strain male mice) was > 100 mg/kg, the inhibition at 100 µM (A₂ receptor) was 112% and the inhibition at 10 µM (A₂ receptor) was 108%. It also gave an inhibition at 1 µM (A₂ receptor) of 76% and an inhibition at 0.1 µM (A₂ receptor) of 73%.
With CCn1c(=O)c2c(nc(/C=C/c3ccc(OC)c(OC)c3Cl)n2C)n(CC)c1=O [Compound 50, (E)-8-(2-Chloro-3,4-dimethoxystyryl)-1,3-diethyl-7-methylxanthine] the MLD (dd-strain male mice) was > 300 mg/kg, the inhibition at 100 µM (A₂ receptor) was 93% and the inhibition at 10 µM (A₂ receptor) was 88%. It also gave an inhibition at 1 µM (A₂ receptor) of 95%, an inhibition at 0.1 µM (A₂ receptor) of 88% and an ED50 [1] of 3.8 mg/kg. For the same compound, the “Number of the Animals Showing Remission” value [1] was 4, the “Remission Rate (%)” value [1] was 24% and the “Total Score” value [1] was 19.
COc1ccc(/C=C/c2nc3c([nH]2)c(=O)n(C)c(=O)n3C)c(Cl)c1OC [Compound 51, (E)-8-(2-Chloro-3,4-dimethoxystyryl)theophylline] was tested, and the MLD (dd-strain male mice) was > 100 mg/kg, the inhibition at 100 µM (A₂ receptor) was 91% and the inhibition at 10 µM (A₂ receptor) was 88%.
COc1ccc(/C=C/c2nc3c(c(=O)n(C)c(=O)n3C)n2C)c(Cl)c1OC [Compound 52, (E)-8-(2-Chloro-3,4-dimethoxystyryl)caffeine] was tested, and the MLD (dd-strain male mice) was > 300 mg/kg, the inhibition at 100 µM (A₂ receptor) was 83% and the inhibition at 10 µM (A₂ receptor) was 81%. For the same compound, the inhibition at 1 µM (A₂ receptor) was 88%, the inhibition at 0.1 µM (A₂ receptor) was 78% and the ED50 [1] was 1.7 mg/kg. For the same compound, the “Number of the Animals Showing Remission” value [1] was 5, the “Remission Rate (%)” value [1] was 60% and the “Total Score” value [1] was 10.
With CCn1c(=O)c2c(nc(/C=C/c3ccc(F)c(F)c3)n2C)n(CC)c1=O [Compound 54, (E)-8-(3,4-Difluorostyryl)-1,3-diethyl-7-methylxanthine] the MLD (dd-strain male mice) was > 300 mg/kg, the inhibition at 100 µM (A₂ receptor) was 96% and the inhibition at 10 µM (A₂ receptor) was 95%. The inhibition at 1 µM (A₂ receptor) was 94%, the inhibition at 0.1 µM (A₂ receptor) was 63% and the “Number of the Animals Showing Remission” value [1] was 5. The “Remission Rate (%)” value [1] was 28% and the “Total Score” value [1] was 18.
In the case of CCn1c(=O)c2[nH]c(/C=C/c3ccc(OC)c(Br)c3)nc2n(CC)c1=O [Compound 55, (E)-8-(3-Bromo-4-methoxystyryl)-1,3-diethylxanthine], the MLD (dd-strain male mice) is reported as > 100 mg/kg, the inhibition at 100 µM (A₂ receptor) is reported as 81% and the inhibition at 10 µM (A₂ receptor) is reported as 77%. It also gave an inhibition at 1 µM (A₂ receptor) of 65% and an inhibition at 0.1 µM (A₂ receptor) of 56%.
With CCn1c(=O)c2c(nc(/C=C/c3ccc(OC)c(Br)c3)n2C)n(CC)c1=O [Compound 56, (E)-8-(3-Bromo-4-methoxystyryl)-1,3-diethyl-7-methylxanthine] the MLD (dd-strain male mice) was > 100 mg/kg, the inhibition at 100 µM (A₂ receptor) was 99% and the inhibition at 10 µM (A₂ receptor) was 97%. The inhibition at 1 µM (A₂ receptor) was 92%, the inhibition at 0.1 µM (A₂ receptor) was 74% and the “Number of the Animals Showing Remission” value [1] was 5. The “Remission Rate (%)” value [1] was 44% and the “Total Score” value [1] was 14.
With COc1ccc(/C=C/c2nc3c(c(=O)n(C)c(=O)n3C)n2C)cc1Br [Compound 58, (E)-8-(3-Bromo-4-methoxystyryl)caffeine] the MLD (dd-strain male mice) was > 300 mg/kg, the inhibition at 100 µM (A₂ receptor) was 78% and the inhibition at 10 µM (A₂ receptor) was 84%.
With CCn1c(=O)c2c(nc(/C=C/c3cc(OC)c(OC)cc3Br)n2C)n(CC)c1=O [Compound 60, (E)-8-(2-Bromo-4,5-dimethoxystyryl)-1,3-diethyl-7-methylxanthine] the MLD (dd-strain male mice) was > 100 mg/kg, the inhibition at 100 µM (A₂ receptor) was 84% and the inhibition at 10 µM (A₂ receptor) was 75%.
With CCn1c(=O)c2[nH]c(/C=C/c3cccc(OC)c3[N+](=O)[O-])nc2n(CC)c1=O [Compound 63, (E)-1,3-Diethyl-8-(3-methoxy-2-nitrostyryl)xanthine] the MLD (dd-strain male mice) was > 300 mg/kg, the inhibition at 100 µM (A₂ receptor) was 79% and the inhibition at 10 µM (A₂ receptor) was 74%. For the same compound, the “Number of the Animals Showing Remission” value [1] was 3, the “Remission Rate (%)” value [1] was 32% and the “Total Score” value [1] was 17.
With CCn1c(=O)c2[nH]c(/C=C/c3cccc(F)c3)nc2n(CC)c1=O [Compound 65, (E)-1,3-Diethyl-8-(3-fluorostyryl)xanthine] the MLD (dd-strain male mice) was > 100 mg/kg, the inhibition at 1 µM (A₂ receptor) was 64% and the inhibition at 0.1 µM (A₂ receptor) was 64%.
CCn1c(=O)c2c(nc(/C=C/c3cccc(F)c3)n2C)n(CC)c1=O [Compound 66, (E)-1,3-Diethyl-8-(3-fluorostyryl)-7-methylxanthine] was tested, and the MLD (dd-strain male mice) was > 300 mg/kg, the inhibition at 1 µM (A₂ receptor) was 93% and the inhibition at 0.1 µM (A₂ receptor) was 78%.
With CCn1c(=O)c2[nH]c(/C=C/c3cc(OC)cc(OC)c3)nc2n(CC)c1=O [Compound 67, (E)-8-(3,5-Dimethoxystyryl)-1,3-diethylxanthine] the MLD (dd-strain male mice) was > 100 mg/kg, the inhibition at 1 µM (A₂ receptor) was 73% and the inhibition at 0.1 µM (A₂ receptor) was 73%. For the same compound, the “Number of the Animals Showing Remission” value [1] was 5, the “Remission Rate (%)” value [1] was 64% and the “Total Score” value [1] was 9.
In the case of CCn1c(=O)c2[nH]c(/C=C/c3ccc(N(C)C)cc3)nc2n(CC)c1=O [Compound 99, (E)-8-[4-(N,N-Dimethylamino)styryl]-1,3-diethylxanthine], the MLD (dd-strain male mice) is reported as > 100 mg/kg, the inhibition at 1 µM (A₂ receptor) is reported as 64% and the inhibition at 0.1 µM (A₂ receptor) is reported as 25%.
